In patent publication US9695155B2, “Herbicidal substituted pyrimidinyloxy benzene compounds” (E. I. DU PONT DE NEMOURS AND COMPANY, priority 2013, dated 2017):

Key:
[1] = test system: giant foxtail; test: Test A preemergence; type: in vivo, Setaria faberii; conditions: Setaria faberi, pre-emergence, 240 h, 0 to 100 scale where 0 is no effect and 100 is complete control
Outline: (§1)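 Greenhouse pot test, loam/sand soil. Formulation: non-phytotoxic solvent mix plus surfactant. Pre: directed spray onto soil after sowing. Post: plants at 1–2 leaf, 2–10 cm. Rated visually vs untreated controls at ~10 d, 0 (no effect) to 100 (complete control).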

[2] = test system: pigweed; test: Test A postemergence; type: in vivo, Amaranthus retroflexus; conditions: Amaranthus retroflexus, post-emergence, 0 to 100 scale where 0 is no effect and 100 is complete control
Outline: as §1

[3] = test system: Heteranthera limosa; test: Test B flooded paddy test; type: in vivo; conditions: Heteranthera limosa, Flood, 250 g ai/ha; 0 to 100 scale where 0 is no effect and 100 is complete control; read-out: Plant response rating, Ducksalad
Outline: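 Plants at 2-leaf stage; pots flooded to 3 cm above soil and compound applied directly into paddy water, depth held throughout. After 13 to 15 days in greenhouse, visual rating versus controls on 0 (no effect) to 100 (complete control) scale.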

[4] = test system: Italian ryegrass; test: Test C preemergence; type: in vivo, Lolium multiflorum; conditions: Lolium multiflorum, pre-emergence
Outline: (§2)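 Seeds were sown in loam–sand blend and sprayed preemergence, while plants at 1- to 4-leaf stage (2–18 cm) in peat-based medium received postemergence sprays; test chemicals were formulated in a non-phytotoxic solvent with surfactant. After 13–15 days in a greenhouse, injury was rated visually against controls, 0 (no effect) to 100 (complete control).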

[5] = test system: galium; test: Test C preemergence; type: in vivo, Galium aparine; conditions: Galium, pre-emergence
Outline: as §2

[6] = test system: johnsongrass; test: Test C preemergence; type: in vivo, Sorghum halepense; conditions: Sorghum halepense, pre-emergence
Outline: as §2

[7] = test system: morningglory; test: Test C preemergence; type: in vivo, Ipomoea coccinea; conditions: Ipomoea, pre-emergence
Outline: as §2

[8] = test system: oilseed rape; test: Test C preemergence; type: in vivo, Brassica napus; conditions: Brassica napus, pre-emergence
Outline: as §2

[9] = test system: velvetleaf; test: Test C preemergence; type: in vivo, Abutilon theophrasti; conditions: Abutilon theophrasti, pre-emergence
Outline: as §2

[10] = test system: wheat, winter; test: Test C postemergence; type: in vivo, Triticum aestivum; conditions: Triticum aestivum, post-emergence
Outline: as §2

[11] = test system: corn; test: Test C postemergence; type: in vivo, Zea mays; conditions: Zea mays, post-emergence
Outline: as §2

[12] = test system: large (Lg) crabgrass; test: Test C postemergence; type: in vivo, Digitaria sanguinalis; conditions: Digitaria sanguinalis, post-emergence
Outline: as §2

[13] = test system: chickweed; test: Test C postemergence; type: in vivo, Stellaria media; conditions: Stellaria media, post-emergence
Outline: as §2

## FC(F)(F)Sc1cnn(-c2ccccc2Oc2ncc(Cl)cn2)c1 [Compound 132, 5-chloro-2-[2-[4-(trifluoromethylthio)-1H-pyrazol-1-yl]phenoxy]pyrimidine]
[1]; 125 g ai/ha, read-out: Plant response rating, Foxtail, Giant
  pest or weed control at 125 g/ha: 90%
[1]; 500 g ai/ha, read-out: Foxtail, Giant plant response rating
  pest or weed control at 500 g/ha: 100%
[2]; 500 g ai/ha, read-out: Plant response rating, Pigweed
  pest or weed control at 500 g/ha: 100%
[2]; 240 h, 125 g ai/ha, read-out: Pigweed plant response rating
  pest or weed control at 125 g/ha: 100%
[3]
  pest or weed control at 250 g/ha: 0%
[4]; 16 g ai/ha, preemergence, scale 0 to 100 (0 no effect, 100 complete control), read-out: Ryegrass, Italian plant response rating
  pest or weed control at 16 g/ha: 0%
[4]; 62 g ai/ha, preemergence, scale 0 (no effect) to 100 (complete control), read-out: Ryegrass, Italian plant response rating
  pest or weed control at 62 g/ha: 5%
[4]; 125 g ai/ha, preemergence, scale 0 (no effect) to 100 (complete control), read-out: Ryegrass, Italian plant response rating
  pest or weed control at 125 g/ha: 30%
[4]; Preemergence, 31 g ai/ha, scale 0 to 100, 0 no effect, 100 complete control, read-out: Plant response rating, Ryegrass, Italian
  pest or weed control at 31 g/ha: 0%
[5]; 16 g ai/ha, preemergence, scale 0 to 100 (0 no effect, 100 complete control), read-out: Galium plant response rating
  pest or weed control at 16 g/ha: 0%
[5]; 62 g ai/ha, preemergence, scale 0 (no effect) to 100 (complete control), read-out: Galium plant response rating
  pest or weed control at 62 g/ha: 90%
[5]; 125 g ai/ha, preemergence, scale 0 (no effect) to 100 (complete control), read-out: Galium plant response rating
  pest or weed control at 125 g/ha: 90%
[5]; Preemergence, 31 g ai/ha, scale 0 to 100, 0 no effect, 100 complete control, read-out: Plant response rating, Galium
  pest or weed control at 31 g/ha: 0%
[6]; 16 g ai/ha, preemergence, scale 0 to 100 (0 no effect, 100 complete control), read-out: Johnsongrass plant response rating
  pest or weed control at 16 g/ha: 0%
[6]; 62 g ai/ha, preemergence, scale 0 (no effect) to 100 (complete control), read-out: Johnsongrass plant response rating
  pest or weed control at 62 g/ha: 0%
[6]; 125 g ai/ha, preemergence, scale 0 (no effect) to 100 (complete control), read-out: Johnsongrass plant response rating
  pest or weed control at 125 g/ha: 35%
[6]; Preemergence, 31 g ai/ha, scale 0 to 100, 0 no effect, 100 complete control, read-out: Plant response rating, Johnsongrass
  pest or weed control at 31 g/ha: 0%
[7]; 16 g ai/ha, preemergence, scale 0 to 100 (0 no effect, 100 complete control), read-out: Morningglory plant response rating
  pest or weed control at 16 g/ha: 25%
[7]; 62 g ai/ha, preemergence, scale 0 (no effect) to 100 (complete control), read-out: Morningglory plant response rating
  pest or weed control at 62 g/ha: 5%
[7]; 125 g ai/ha, preemergence, scale 0 (no effect) to 100 (complete control), read-out: Morningglory plant response rating
  pest or weed control at 125 g/ha: 5%
[7]; Preemergence, 31 g ai/ha, scale 0 to 100, 0 no effect, 100 complete control, read-out: Plant response rating, Morningglory
  pest or weed control at 31 g/ha: 0%
[8]; 16 g ai/ha, preemergence, scale 0 to 100 (0 no effect, 100 complete control), read-out: Oilseed Rape plant response rating
  plant injury at 16 g/ha: 20%
[8]; 62 g ai/ha, preemergence, scale 0 (no effect) to 100 (complete control), read-out: Oilseed Rape plant response rating
  plant injury at 62 g/ha: 100%
[8]; 125 g ai/ha, preemergence, scale 0 (no effect) to 100 (complete control), read-out: Oilseed Rape plant response rating
  plant injury at 125 g/ha: 100%
[8]; Preemergence, 31 g ai/ha, scale 0 to 100, 0 no effect, 100 complete control, read-out: Plant response rating, Oilseed Rape
  plant injury at 31 g/ha: 85%
[9]; 16 g ai/ha, preemergence, scale 0 to 100 (0 no effect, 100 complete control), read-out: Velvetleaf plant response rating
  pest or weed control at 16 g/ha: 75%
[9]; 62 g ai/ha, preemergence, scale 0 (no effect) to 100 (complete control), read-out: Velvetleaf plant response rating
  pest or weed control at 62 g/ha: 100%
[9]; 125 g ai/ha, preemergence, scale 0 (no effect) to 100 (complete control), read-out: Velvetleaf plant response rating
  pest or weed control at 125 g/ha: 100%
[9]; Preemergence, 31 g ai/ha, scale 0 to 100, 0 no effect, 100 complete control, read-out: Plant response rating, Velvetleaf
  pest or weed control at 31 g/ha: 85%
[10]; 16 g ai/ha, postemergence, 0 is no effect, 100 is complete control, read-out: Plant response rating (0 to 100), Wheat
  plant injury at 16 g/ha: 0%
[10]; 125 g ai/ha, postemergence, visual rating, scale 0 to 100 (0 no effect, 100 complete control), read-out: Plant response rating, Wheat
  plant injury at 125 g/ha: 5%
[10]; Postemergence, 62 g ai/ha, scale 0 to 100 (0 no effect, 100 complete control), read-out: Plant response rating, Wheat
  plant injury at 62 g/ha: 0%
[11]; 16 g ai/ha, postemergence, 0 is no effect, 100 is complete control, read-out: Plant response rating (0 to 100), Corn
  plant injury at 16 g/ha: 5%
[11]; 125 g ai/ha, postemergence, visual rating, scale 0 to 100 (0 no effect, 100 complete control)
  Corn plant response rating (crop injury, 0 = no effect, 100 = complete kill) at 125 g/ha: 10%
[11]; Postemergence, 62 g ai/ha, scale 0 to 100 (0 no effect, 100 complete control)
  Corn plant response rating (crop injury, 0 = no effect, 100 = complete kill) at 62 g/ha: 5%
[12]; 16 g ai/ha, postemergence, 0 is no effect, 100 is complete control, read-out: Plant response rating (0 to 100), Crabgrass, Large
  pest or weed control at 16 g/ha: 5%
[12]; 125 g ai/ha, postemergence, visual rating, scale 0 to 100 (0 no effect, 100 complete control), read-out: Plant response rating, Crabgrass, Large
  pest or weed control at 125 g/ha: 10%
[12]; Postemergence, 62 g ai/ha, scale 0 to 100 (0 no effect, 100 complete control), read-out: Plant response rating, Crabgrass, Large
  pest or weed control at 62 g/ha: 5%
[13]; 16 g ai/ha, postemergence, 0 is no effect, 100 is complete control, read-out: Plant response rating (0 to 100), Chickweed
  pest or weed control at 16 g/ha: 10%
[13]; 125 g ai/ha, postemergence, visual rating, scale 0 to 100 (0 no effect, 100 complete control), read-out: Plant response rating, Chickweed
  pest or weed control at 125 g/ha: 40%
[13]; Postemergence, 62 g ai/ha, scale 0 to 100 (0 no effect, 100 complete control), read-out: Plant response rating, Chickweed
  pest or weed control at 62 g/ha: 30%
